From patent publication US6723753B2, “Substituted n-benzyl-n-phenyl aminoalcohol compounds useful for inhibiting cholesteryl ester transfer protein activity” (Pharmacia Corporation, priority 2002, dated 2004)

How the values were obtained:
CETP [1] = target: T1, CETP (Homo sapiens, UniProt P11597); assay: Assay of CETP Inhibition using Purified Components (Reconstituted Buffer Assay); format: biochemical; set-up: made in house; host or cells: CHO cells (serum-free conditioned medium)
T1 sequence (P11597 18-493): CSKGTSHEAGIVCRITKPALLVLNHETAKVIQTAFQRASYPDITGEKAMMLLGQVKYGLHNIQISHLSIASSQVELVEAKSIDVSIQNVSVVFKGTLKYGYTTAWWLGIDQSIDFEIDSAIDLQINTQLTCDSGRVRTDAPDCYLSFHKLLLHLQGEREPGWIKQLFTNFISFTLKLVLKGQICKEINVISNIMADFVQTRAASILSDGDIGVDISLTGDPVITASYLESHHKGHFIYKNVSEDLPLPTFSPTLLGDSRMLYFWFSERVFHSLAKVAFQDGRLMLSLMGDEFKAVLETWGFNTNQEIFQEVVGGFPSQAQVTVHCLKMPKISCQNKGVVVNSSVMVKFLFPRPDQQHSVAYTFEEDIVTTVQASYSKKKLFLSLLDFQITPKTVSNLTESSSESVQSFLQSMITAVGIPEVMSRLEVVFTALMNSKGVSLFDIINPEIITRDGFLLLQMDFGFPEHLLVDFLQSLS
Procedure, shortened: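 Purified human recombinant CETP from transfected CHO cells was incubated with [^3H]CE-labeled HDL donor and LDL acceptor in Tris pH 7.4/NaCl/EDTA/1% BSA buffer for 2 h at 37 °C. LDL was then precipitated with dextran sulfate/MgCl2, filtered, and counted by liquid scintillation to give IC50 for CE transfer.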

CETP [2] = target: T1, CETP; assay: Assay of CETP Inhibition in Human Plasma; format: biochemical; set-up: Blood was obtained from healthy volunteers, recruited from the personnel of Monsanto Company; from tissue; host or cells: human EDTA plasma pool from healthy volunteers; conditions: Inhibition of CETP activity in human plasma assay; transfer of [3H]CE from HDL to VLDL and LDL; read-out: IC50
Procedure, shortened: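 In human EDTA plasma with [3H]CE-HDL, compounds in 1% DMSO (4 μL in 396 μL) were incubated 4 h at 37° C. IC50 was taken from % control versus concentration.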

[3] = Inhibition of CETP activity in reconstituted buffer assay, transfer of [3H]CE from HDL to LDL, read-out: IC50

| IC50 (CETP [1]; [3]) [µM] | IC50 (CETP [2]) [µM] | Compound | IC50 (CETP [1]) [µM] | IC50 (CETP [1]; IC50, Inhibition of CETP activity in reconstituted buffer assay, transfer of [3H]CE from HDL to LDL) [µM] |
| --- | --- | --- | --- | --- |
| 0.92 | 49 | O=[N+]([O-])c1cccc(-c2cccc(N(Cc3cccc(OC(F)(F)C(F)F)c3)CC(O)C(F)(F)F)c2)c1 (stereo not shown) [Example 556] |  |  |
| 0.88 | 34 | OC(CN(Cc1cccc(OC(F)(F)C(F)F)c1)c1cccc(-c2cc(Cl)cc(Cl)c2)c1)C(F)(F)F (stereo not shown) [Example 557] |  |  |
| 0.69 | 38 | COc1ccc(-c2cccc(N(Cc3cccc(OC(F)(F)C(F)F)c3)CC(O)C(F)(F)F)c2)cc1 (stereo not shown) [Example 558] |  |  |
| 0.56 | 8 | OC(CN(Cc1cccc(OC(F)(F)C(F)F)c1)c1cccc(-c2ccc(F)c(F)c2)c1)C(F)(F)F (stereo not shown) [Example 559] |  |  |
| 1 | 11 | OC(CN(Cc1cccc(OC(F)(F)C(F)F)c1)c1cccc(-c2ccc(F)c(F)c2F)c1)C(F)(F)F (stereo not shown) [Example 560] |  |  |
| 1.1 | 42 | OC(CN(Cc1cccc(-c2cccs2)c1)c1cccc(Oc2ccccc2)c1)C(F)(F)F (stereo not shown) [Example 595, 3-[(3-phenoxyphenyl) [[3-(2-thienyl)phenyl]methyl]amino]-1,1,1-trifluoro-2-propanol] |  |  |
| 4.5 | > 100 | OC(CN(Cc1cccc(Br)c1)c1cccc(Oc2ccccc2)c1)C(F)(F)F (stereo not shown) [Example 595B, 3-[(3-phenoxyphenyl)[[3-bromophenyl]methyl]amino]-1,1,1-trifluoro-2-propanol] |  |  |
| 0.054 | 3.4 | OC(CN(Cc1cccc(OC(F)(F)C(F)F)c1)c1cccc(Oc2cc(F)ccc2Br)c1)C(F)(F)F (stereo not shown) [Example 629, 3-[[3-(2-bromo-5-fluorophenoxy)phenyl][[3-(1,1,2,2-tetrafluoro-ethoxy)phenyl]methyl]amino]-1,1,1-trifluoro-2-propanol] |  |  |
| 0.05 | 1.8 | OC(CN(Cc1cccc(OC(F)(F)C(F)F)c1)c1cccc(Oc2cc(Br)ccc2F)c1)C(F)(F)F (stereo not shown) [Example 630, 3-[[3-(-5-bromo-2-fluorophenoxy)phenyl][[3-(1,1,2,2-tetrafluoro-ethoxy)phenyl]methyl]amino]-1,1,1-trifluoro-2-propanol] |  |  |
| 0.67 | 12 | CC(C)(C)Oc1cccc(CN(CC(O)C(F)(F)F)c2cccc(Oc3ccccc3)c2)c1 (stereo not shown) [Example 654, 3-[(3-phenoxyphenyl)[[3-(1,1-dimethylethoxy)phenyl]methyl]amino]-1,1,1-trifluoro-2-propanol] |  |  |
| 3.6 | 48 | OC(COc1cccc(CN(CC(O)C(F)(F)F)c2cccc(Oc3ccccc3)c2)c1)C(F)(F)F (stereo not shown) [Example 655, 3-[(3-phenoxyphenyl)[[3-(2-hydroxy-3,3,3-trifluoro-n-propoxy)phenyl]methyl]amino]-1,1,1-trifluoro-2-propanol] |  |  |
| 1.3 | 63 | OC(COc1cccc(CN(CC(O)C(F)(F)F)c2cccc(Oc3ccc(F)cc3)c2)c1)C(F)(F)F (stereo not shown) [Example 655B, 3-[3-(4-fluorophenoxy)phenyl[[3-(2-hydroxy-3,3,3-trifluoro-n-propoxy)phenyl]methyl]amino]-1,1,1-trifluoro-2-propanol] |  |  |
| 0.04 | 1.1 | CCc1cc(Oc2cccc(N(Cc3cccc(C(F)(F)C(F)(F)F)c3)CC(O)C(F)(F)F)c2)ccc1Cl (stereo not shown) [Example 660, 3-[(4-chloro-3-ethylphenoxy)phenyl[[3-(pentafluoroethyl)phenyl]methyl]-amino]-1,1,1-trifluoro-2-propanol.] |  |  |
| 15 | > 100 | COc1ccc(CN(CC(O)C(F)(F)F)c2cccc(Oc3ccccc3)c2)cc1 (stereo not shown) [Example 686] |  |  |
| 2.5 | > 100 | OC(CN(Cc1cccc(C(F)(F)F)c1)c1cccc(OC(F)(F)F)c1)C(F)(F)F (stereo not shown) [Example 688] |  |  |
| 2.5 | 75 | OC(CN(Cc1cccc(Oc2ccccc2)c1)c1cc(C(F)(F)F)cc(C(F)(F)F)c1)C(F)(F)F (stereo not shown) [Example 690] |  |  |
| 3 | > 100 | OC(CN(Cc1cccc(C(F)(F)F)c1)c1cc(C(F)(F)F)ccc1C(F)(F)F)C(F)(F)F (stereo not shown) [Example 691] |  |  |
| 0.91 | 31 | O=S(=O)(c1ccccc1)c1cccc(N(Cc2cccc(OC(F)(F)C(F)F)c2)CC(O)C(F)(F)F)c1 (stereo not shown) [compound 218] |  |  |
| 2.1 | > 100 | OC(CN(Cc1cccc(OC(F)(F)C(F)F)c1)c1cccc(N2CCCCC2)c1)C(F)(F)F (stereo not shown) [compound 315] |  |  |
| 1.5 | 55 | OC(CN(Cc1cccc(OC(F)(F)F)c1)c1ccc2c(c1)Cc1ccccc1-2)C(F)(F)F (stereo not shown) [compound 699] |  |  |

| Compound | IC50 (CETP [1]; [3]) [µM] | IC50 (CETP [2]) [µM] | IC50 (CETP [1]) [µM] | IC50 (CETP [1]; IC50, Inhibition of CETP activity in reconstituted buffer assay, transfer of [3H]CE from HDL to LDL) [µM] |
| --- | --- | --- | --- | --- |
| CC(=O)OC(CN(Cc1cccc(C(F)(F)F)c1)c1cccc(F)c1)C(F)(F)F (stereo not shown) [Example 664, 2,2,2-trifluoro-1-[[(3-fluorophenyl)[3-(trifluoromethyl)phenyl]-methyl]amino]methyl]ethyl Acetate] |  | > 200 | 70 |  |
| OC(CN(Cc1cccc(SC(F)(F)F)c1)c1cccc(Oc2ccccc2)c1)C(F)(F)F (stereo not shown) [compound 216] |  | 24 |  | 0.39 |
| OC(CN(Cc1ccc(F)c(-c2ccco2)c1)c1cccc(Oc2ccccc2)c1)C(F)(F)F (stereo not shown) [compound 593] | 0.78 | 49 |  |  |
